Reference: the RepoRT retention time repository (doi:10.1016/j.chroma.2019.01.023)

Tests used:
[1] = HILIC, Merck SeQuant ZIC-pHILIC, 150 × 2.1 mm, 5 µm, 40 °C, 0.3 mL/min, estimated dead time 1.1 min; A: acetonitrile; B: water + 2.8 mM ammonium formate, pH 9; gradient (min/%B) 0/5 1/5 10/51 13/51 13.1/5 20/5; details: stereoisomer not certain
[2] = HILIC, Waters ACQUITY UPLC BEH Amide, 150 × 2.1 mm, 1.7 µm, 40 °C, 0.5 mL/min, estimated dead time 0.66 min; A: 5% water + 95% acetonitrile; B: 70% water + 30% acetonitrile + 10 mM ammonium formate, pH 6.5; gradient (min/%B) 0/0 2/0 20/70 23/70 24/0 31/0; details: stereoisomer not certain

| SMILES | LC retention time [1] | LC retention time [2] |
| --- | --- | --- |
| NC(=O)CC(N)C(=O)O (stereo not given) [ASPARAGINE] | 9.25 min | 11.5 min |
| CNC(CC(=O)O)C(=O)O (stereo not given) [N-METHYLASPARTATE] | 8.28 min | 11.6 min |
| OCC1OC(OCC2OC(O)C(O)C(O)C2O)C(O)C(O)C1O (stereo not given) [MELIBIOSE] | 9.37 min | 11.8 min |
| CC(C)C(N)C(=O)O (stereo not given) [VALINE] | 7.72 min | 8.75 min |
| Cc1cnc(=O)[nH]c1N [5-METHYLCYTOSINE] | 6.24 min | 5.31 min |
| NC(N)=NCC(=O)O [GUANIDINOACETATE] | 9.05 min | 10.2 min |
| NCCC(=O)NC(Cc1cnc[nH]1)C(=O)O (stereo not given) [CARNOSINE] | 10.5 min | 12.3 min |
| NC(CS(=O)(=O)O)C(=O)O (stereo not given) [CYSTEATE] | 8.92 min | 10.8 min |
| CC(=O)NC(CC(N)=O)C(=O)O (stereo not given) [N-ACETYLASPARAGINE] | 7.88 min | 8.1 min |
| O=CC[C@@H](O)[C@H](O)[C@H](O)CO [2-DEOXY-D-GLUCOSE] | 8.23 min | 4.02 min |
| NC(CSCC(=O)O)C(=O)O (stereo not given) [S-CARBOXYMETHYLCYSTEINE] | 6.4 min | 2.47 min |
| Cn1cncc1CC(NC(=O)CCN)C(=O)O (stereo not given) [ANSERINE] | 10.1 min | 12.5 min |
| NC(=O)NCCCC(N)C(=O)O (stereo not given) [CITRULLINE] | 9.31 min | 11.3 min |
| NC1C(O)OC(COS(=O)(=O)O)C(O)C1O (stereo not given) [GLUCOSAMINE 6-SULFATE] | 10.5 min | 10.6 min |
| O=C1CC(C(=O)[O-])NC(=O)N1 (stereo not given) [DIHYDROOROTATE] | 7.81 min | 7.2 min |
| CNC(CCC(=O)O)C(=O)O (stereo not given) [N-METHYLGLUTAMATE] | 8.12 min | 11.1 min |
| NC(CCO)C(=O)O (stereo not given) [HOMOSERINE] | 8.91 min | 10.5 min |
| NC(=O)NC1NC(=O)NC1=O (stereo not given) [ALLANTOIN] | 7.96 min | 4.85 min |

| SMILES | LC retention time [1] | LC retention time [2] |
| --- | --- | --- |
| O=C([O-])c1cc(=O)[nH]c(=O)[nH]1 [OROTATE] | 7.34 min | 3.49 min |
| Cn1cnc(C[C@H](N)C(=O)O)c1 [1-METHYL-L-HISTIDINE] | 8.97 min | 13.2 min |
| O=CNCC(=O)O [N-FORMYLGLYCINE] | 7.76 min | 4.89 min |
| CC(=O)NC(CO)C(=O)O (stereo not given) [N-ACETYLSERINE] | 7.56 min | 5.57 min |
| NCCS(=O)(=O)O [TAURINE] | 9.1 min | 8.04 min |
| NC(CCCC(=O)O)C(=O)O (stereo not given) [AMINOADIPATE] | 8.78 min | 6.89 min |
| O=CC(O)C1OC(=O)C(O)C1O [D-GLUCURONOLACTONE] | 6.28 min | 1.86 min |
| NC(=O)CCC(N)C(=O)O (stereo not given) [GLUTAMINE] | 9.03 min | 11 min |
| OCC1OC(OC2OC(CO)C(O)C(O)C2O)C(O)C(O)C1O (stereo not given) [TREHALOSE] | 9.23 min | 11.3 min |
| C[N+](C)(C)CCOP(=O)(O)OP(=O)([O-])OCC1OC(n2ccc(N)nc2=O)C(O)C1O (stereo not given) [CITICOLINE] | 8.89 min | 13.4 min |
| O=C1OC(C(O)CO)C(O)C1O [L-GULONOLACTONE] | 7.2 min | 3.12 min |
| CN(CC(=O)O)C(=N)N [CREATINE] | 8.59 min | 9.87 min |
| CCCCCCCCCCCCCCCC(=O)OCC(COP(=O)(O)OCCN)OC(=O)CCCCCCCCCCCCCCC (stereo not given) [DIPALMITOYL-PHOSPHOETHANOLAMINE] | – | 4.45 min |
| CCCCC(=O)[O-] [PENTANOATE] | – | 8.25 min |
| NCCc1cnc[nH]1 [HISTAMINE] | – | 9.43 min |
| Cn1cncc1CCN [3-METHYLHISTAMINE] | – | 9.57 min |
| NC(N)=S [THIOUREA] | – | 1.17 min |
